IC50 data for 28 molecules are collected here from US20090018134A1, “Compounds - 945” (AstraZeneca AB, priority 2007, published 2009).

In this test the target is T1, mTOR (Homo sapiens, UniProt P42345).
T1 construct: FLAG; made in house
Nature of the test: In Vitro mTOR Kinase Assay (Echo), Test (a)(ii). Format: biochemical. The following applies: table of enzyme assay Test (a)(ii); read-out: Test (a)(ii) IC50. In outline: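 Enzyme: HEK293-expressed, FLAG-purified mTOR C-terminal fragment (aa 1362-2549). Rxn 2 h RT with biotinylated peptide, stopped with EDTA 50 mM/BSA/Tris pH 7.4. Detection: T389 phospho-antibody AlphaScreen, 680 nm excitation. IC50.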

Broadly, the IC50 is the point on the concentration scale where inhibition reaches its midpoint.

T1 sequence (P42345 1362-2549): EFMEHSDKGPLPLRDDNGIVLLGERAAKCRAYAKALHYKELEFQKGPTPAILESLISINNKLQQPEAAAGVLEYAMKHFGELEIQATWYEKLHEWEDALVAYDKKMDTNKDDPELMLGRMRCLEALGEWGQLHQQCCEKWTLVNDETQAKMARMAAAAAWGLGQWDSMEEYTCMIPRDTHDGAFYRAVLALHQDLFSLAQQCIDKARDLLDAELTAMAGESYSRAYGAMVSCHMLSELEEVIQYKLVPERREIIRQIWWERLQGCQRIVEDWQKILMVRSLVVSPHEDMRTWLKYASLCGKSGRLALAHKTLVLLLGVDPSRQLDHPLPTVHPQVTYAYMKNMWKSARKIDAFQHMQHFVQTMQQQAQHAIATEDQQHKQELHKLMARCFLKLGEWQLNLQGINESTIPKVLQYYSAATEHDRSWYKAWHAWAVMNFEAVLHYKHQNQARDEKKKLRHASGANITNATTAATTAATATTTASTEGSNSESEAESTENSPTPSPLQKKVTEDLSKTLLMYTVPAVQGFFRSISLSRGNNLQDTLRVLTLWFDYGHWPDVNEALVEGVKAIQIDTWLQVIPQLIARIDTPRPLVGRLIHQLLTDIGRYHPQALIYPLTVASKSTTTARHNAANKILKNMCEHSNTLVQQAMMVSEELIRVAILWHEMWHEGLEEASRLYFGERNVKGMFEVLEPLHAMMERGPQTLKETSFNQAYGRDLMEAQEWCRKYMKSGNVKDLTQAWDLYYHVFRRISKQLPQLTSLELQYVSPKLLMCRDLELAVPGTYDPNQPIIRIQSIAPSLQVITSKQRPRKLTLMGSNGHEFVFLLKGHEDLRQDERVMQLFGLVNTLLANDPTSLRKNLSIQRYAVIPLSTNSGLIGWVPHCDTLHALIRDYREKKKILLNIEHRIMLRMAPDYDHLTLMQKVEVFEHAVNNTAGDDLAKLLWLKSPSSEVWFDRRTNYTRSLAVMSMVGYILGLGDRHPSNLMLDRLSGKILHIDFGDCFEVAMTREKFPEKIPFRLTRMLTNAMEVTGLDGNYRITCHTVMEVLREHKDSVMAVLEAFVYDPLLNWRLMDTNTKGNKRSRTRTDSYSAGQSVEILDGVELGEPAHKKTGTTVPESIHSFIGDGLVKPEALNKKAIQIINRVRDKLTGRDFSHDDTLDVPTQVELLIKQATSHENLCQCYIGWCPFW

Take `C[C@H]1COCCN1c1cc(C2(S(=O)(=O)c3nccs3)CC2)nc(-c2ccc(NC(=S)NCCO)cc2)n1` [Example 67, 3-(2-Hydroxyethyl)-1-[4-[4-[(3S)-3-methylmorpholin-4-yl]-6-[1-(1,3-thiazol-2-ylsulfonyl)cyclopropyl]pyrimidin-2-yl]phenyl]thiourea]: the IC50 worked out at 1 nM.
As for `Cc1ccc(S(=O)(=O)C2(c3cc(N4CCOC[C@@H]4C)nc(-c4ccc(NC(=O)NC5CC5)cc4)n3)CCC2)cc1` [Example 68, 3-Cyclopropyl-1-[4-[4-[(3S)-3-methylmorpholin-4-yl]-6-[1-(4-methylphenyl)sulfonylcyclobutyl]pyrimidin-2-yl]phenyl]urea], the figure is 1.41 nM; as for `Cc1ccc(S(=O)(=O)C2(c3cc(N4CCOC[C@@H]4C)nc(-c4ccc(NC(=O)Nc5cnn(C)c5)cc4)n3)CCC2)cc1` [Example 68a], 1.74 nM.
The value for `CCNC(=O)Nc1ccc(-c2nc(N3CCOC[C@H]3C)cc(C3(S(=O)(=O)c4ccccc4)CC3)n2)cc1` [Example 69, 1-[4-[4-[1-(Benzenesulfonyl)cyclopropyl]-6-[(3R)-3-methylmorpholin-4-yl]pyrimidin-2-yl]phenyl]-3-ethylurea] was 7.88 nM.
In the case of `CCNC(=O)Nc1ccc(-c2nc(N3CCOC[C@@H]3CC)cc(C3(S(=O)(=O)c4ccccc4)CC3)n2)cc1` [Example 70, 1-[4-[4-[1-(Benzenesulfonyl)cyclopropyl]-6-[(3S)-3-ethylmorpholin-4-yl]pyrimidin-2-yl]phenyl]-3-ethylurea], the IC50 came out at 2 nM.
`CCNC(=O)Nc1ccc(-c2nc(N3CCOCC3CO)cc(C3(S(=O)(=O)c4ccccc4)CC3)n2)cc1` (stereo not shown) [Example 71, 1-[4-[4-[1-(Benzenesulfonyl)cyclopropyl]-6-[3-(hydroxymethyl)morpholin-4-yl]pyrimidin-2-yl]phenyl]-3-ethylurea]: the IC50 is 18.2 nM.
As for `CCNC(=O)Nc1ccc(-c2nc(N3[C@@H](C)COC[C@@H]3C)cc(C3(S(=O)(=O)c4ccccc4)CC3)n2)cc1` [Example 72, 1-[4-[4-[1-(Benzenesulfonyl)cyclopropyl]-6-[(3S,5S)-3,5-dimethylmorpholin-4-yl]pyrimidin-2-yl]phenyl]-3-ethylurea], the figure is 4.32 nM; as for `CCNC(=O)Nc1ccc(-c2nc(N3[C@H](C)COC[C@@H]3C)cc(C3(S(=O)(=O)c4ccccc4)CC3)n2)cc1` [Example 73, 1-[4-[4-[1-(Benzenesulfonyl)cyclopropyl]-6-[(3R,5S)-3,5-dimethylmorpholin-4-yl]pyrimidin-2-yl]phenyl]-3-ethylurea], 7.44 nM.
The value for `CC[C@H]1COCCN1c1cc(C2(S(=O)(=O)c3ccccc3)CC2)nc(-c2ccc(NC(=O)NC)cc2)n1` [Example 74, 1-[4-[4-[1-(Benzenesulfonyl)cyclopropyl]-6-[(3S)-3-ethylmorpholin-4-yl]pyrimidin-2-yl]phenyl]-3-methylurea] was 2.37 nM; that for `CC[C@H]1COCCN1c1cc(C2(S(=O)(=O)c3ccccc3)CC2)nc(-c2ccc(NC(=O)NC3CC3)cc2)n1` [Example 74a, 1-[4-[4-[1-(benzenesulfonyl)cyclopropyl]-6-[(3S)-3-ethylmorpholin-4-yl]pyrimidin-2-yl]phenyl]-3-cyclopropylurea] was 3.98 nM; that for `CC[C@H]1COCCN1c1cc(C2(S(=O)(=O)c3ccccc3)CC2)nc(-c2ccc(NC(=O)NCCO)cc2)n1` [Example 74b, 1-[4-[4-[1-(benzenesulfonyl)cyclopropyl]-6-[(3S)-3-ethylmorpholin-4-yl]pyrimidin-2-yl]phenyl]-3-(2-hydroxyethyl)urea] was 2.44 nM.
As for `CC[C@H]1COCCN1c1cc(C2(S(=O)(=O)c3ccccc3)CC2)nc(-c2ccc(NC(=O)NCCF)cc2)n1` [Example 74c, 1-[4-[4-[1-(benzenesulfonyl)cyclopropyl]-6-[(3S)-3-ethylmorpholin-4-yl]pyrimidin-2-yl]phenyl]-3-(2-fluoroethyl)urea], the figure is 3.14 nM; as for `CC[C@H]1COCCN1c1cc(C2(S(=O)(=O)c3ccccc3)CC2)nc(-c2ccc(NC(=O)NCC(F)F)cc2)n1` [Example 74d, 1-[4-[4-[1-(benzenesulfonyl)cyclopropyl]-6-[(3S)-3-ethylmorpholin-4-yl]pyrimidin-2-yl]phenyl]-3-(2,2-difluoroethyl)urea], 2.79 nM.
On to `CC[C@H]1COCCN1c1cc(C2(S(=O)(=O)c3ccccc3)CC2)nc(-c2ccc(NC(=O)Nc3cnn(C)c3)cc2)n1` [Example 74e, 1-[4-[4-[1-(benzenesulfonyl)cyclopropyl]-6-[(3S)-3-ethylmorpholin-4-yl]pyrimidin-2-yl]phenyl]-3-(1-methylpyrazol-4-yl)urea], for which the IC50 is 5.06 nM.
The value for `CC[C@H]1COCCN1c1cc(C2(S(=O)(=O)c3ccccc3)CC2)nc(-c2ccc(NC(=O)N[C@@H](C)CO)cc2)n1` [Example 74f, 1-[4-[4-[1-(benzenesulfonyl)cyclopropyl]-6-[(3S)-3-ethylmorpholin-4-yl]pyrimidin-2-yl]phenyl]-3-[(2S)-1-hydroxypropan-2-yl]urea] was 3.99 nM; that for `CC[C@H]1COCCN1c1cc(C2(S(=O)(=O)c3ccccc3)CC2)nc(-c2ccc(NC(=O)N[C@H](C)CO)cc2)n1` [Example 74g, 1-[4-[4-[1-(benzenesulfonyl)cyclopropyl]-6-[(3S)-3-ethylmorpholin-4-yl]pyrimidin-2-yl]phenyl]-3-[(2R)-1-hydroxypropan-2-yl]urea] was 4.33 nM.
For the molecule `CC[C@H]1COCCN1c1cc(C2(S(=O)(=O)c3ccccc3)CC2)nc(-c2ccc(NC(=O)NCCCO)cc2)n1` [Example 74h, 1-[4-[4-[1-(benzenesulfonyl)cyclopropyl]-6-[(3S)-3-ethylmorpholin-4-yl]pyrimidin-2-yl]phenyl]-3-(3-hydroxypropyl)urea], the half-inhibitory concentration (IC50) worked out at 3.21 nM.
As for `CC[C@H]1COCCN1c1cc(C2(S(=O)(=O)c3ccccc3)CC2)nc(-c2ccc(NC(=O)NCC3(O)CC3)cc2)n1` [Example 74i, 1-[4-[4-[1-(benzenesulfonyl)cyclopropyl]-6-[(3S)-3-ethylmorpholin-4-yl]pyrimidin-2-yl]phenyl]-3-[(1-hydroxycyclopropyl)methyl]urea], the figure is 9.25 nM.
As for `Cc1nn(C(F)F)c(C)c1S(=O)(=O)C1(c2cc(N3CCOC[C@@H]3C)nc(-c3ccc(NC(=O)NC4CC4)cc3)n2)CC1` [Example 75, 3-Cyclopropyl-1-[4-[4-[1-[1-(difluoromethyl)-3,5-dimethylpyrazol-4-yl]sulfonylcyclopropyl]-6-[(3S)-3-methylmorpholin-4-yl]pyrimidin-2-yl]phenyl]urea], the IC50 turned out to be 29 nM.
With `CNC(=O)Nc1ccc(-c2nc(N3CCOC[C@@H]3C)cc(C3(S(=O)(=O)c4c(C)nn(C(F)F)c4C)CC3)n2)cc1` [Example 75a, 1-[4-[4-[1-[1-(difluoromethyl)-3,5-dimethylpyrazol-4-yl]sulfonylcyclopropyl]-6-[(3S)-3-methylmorpholin-4-yl]pyrimidin-2-yl]phenyl]-3-methylurea], the half-inhibitory concentration (IC50) was 43.5 nM.
As for `CCNC(=O)Nc1ccc(-c2nc(N3CCOC[C@@H]3C)cc(C3(S(=O)(=O)c4c(C)nn(C(F)F)c4C)CC3)n2)cc1` [Example 75b, 3-[4-[4-[1-[1-(difluoromethyl)-3,5-dimethylpyrazol-4-yl]sulfonylcyclopropyl]-6-[(3S)-3-methylmorpholin-4-yl]pyrimidin-2-yl]phenyl]-1-ethylurea], the figure is 38.1 nM; as for `Cc1nn(C(F)F)c(C)c1S(=O)(=O)C1(c2cc(N3CCOC[C@@H]3C)nc(-c3ccc(NC(=O)NCCO)cc3)n2)CC1` [Example 75c, 1-[4-[4-[1-[1-(difluoromethyl)-3,5-dimethylpyrazol-4-yl]sulfonylcyclopropyl]-6-[(3S)-3-methylmorpholin-4-yl]pyrimidin-2-yl]phenyl]-3-(2-hydroxyethyl)urea], 33.9 nM; as for `Cc1nn(C(F)F)c(C)c1S(=O)(=O)C1(c2cc(N3CCOC[C@@H]3C)nc(-c3ccc(NC(=O)NCC(F)F)cc3)n2)CC1` [Example 75d, 3-(2,2-difluoroethyl)-1-[4-[4-[1-[1-(difluoromethyl)-3,5-dimethylpyrazol-4-yl]sulfonylcyclopropyl]-6-[(3S)-3-methylmorpholin-4-yl]pyrimidin-2-yl]phenyl]urea], 39.9 nM.
The value for `Cc1nn(C(F)F)c(C)c1S(=O)(=O)C1(c2cc(N3CCOC[C@@H]3C)nc(-c3ccc(NC(=O)NCCF)cc3)n2)CC1` [Example 75e, 1-[4-[4-[1-[1-(difluoromethyl)-3,5-dimethylpyrazol-4-yl]sulfonylcyclopropyl]-6-[(3S)-3-methylmorpholin-4-yl]pyrimidin-2-yl]phenyl]-3-(2-fluoroethyl)urea] was 37 nM.
The value for `Cc1nn(C(F)F)c(C)c1S(=O)(=O)C1(c2cc(N3CCOC[C@@H]3C)nc(-c3ccc(NC(=O)Nc4cnn(C)c4)cc3)n2)CC1` [Example 75f, 1-[4-[4-[1-[1-(difluoromethyl)-3,5-dimethylpyrazol-4-yl]sulfonylcyclopropyl]-6-[(3S)-3-methylmorpholin-4-yl]pyrimidin-2-yl]phenyl]-3-(1-methylpyrazol-4-yl)urea] was 60.8 nM; that for `C[C@H]1COCCN1c1cc(C2(S(=O)(=O)c3ccccc3Cl)CC2)nc(-c2ccc(NC(=O)NC3CC3)cc2)n1` [Example 76, 1-[4-[4-[1-(2-Chlorophenyl)sulfonylcyclopropyl]-6-[(3S)-3-methylmorpholin-4-yl]pyrimidin-2-yl]phenyl]-3-cyclopropylurea] was 6.87 nM.
`CNC(=O)Nc1ccc(-c2nc(N3CCOC[C@@H]3C)cc(C3(S(=O)(=O)c4ccccc4Cl)CC3)n2)cc1` [Example 76a, 1-[4-[4-[1-(2-chlorophenyl)sulfonylcyclopropyl]-6-[(3S)-3-methylmorpholin-4-yl]pyrimidin-2-yl]phenyl]-3-methylurea]: the IC50 turned out to be 4.07 nM.
`CCNC(=O)Nc1ccc(-c2nc(N3CCOC[C@@H]3C)cc(C3(S(=O)(=O)c4ccccc4Cl)CC3)n2)cc1` [Example 76b, 3-[4-[4-[1-(2-chlorophenyl)sulfonylcyclopropyl]-6-[(3S)-3-methylmorpholin-4-yl]pyrimidin-2-yl]phenyl]-1-ethylurea]: the IC50 was determined as 7.19 nM.
